Experiments:
[1] = molecular target: T1, human plasma clots (Homo sapiens, UniProt P00488); test: Incorporation into human plasma clots (in vitro plasma clot assay); type: biochemical
T1 construct: Factor XIII is transformed into its active form Factor XIIIa by thrombin in the presence of calcium ions; from tissue; host or cells: human plasma, clotted in vitro with thrombin and calcium chloride
T1 sequence (P00488 39-732): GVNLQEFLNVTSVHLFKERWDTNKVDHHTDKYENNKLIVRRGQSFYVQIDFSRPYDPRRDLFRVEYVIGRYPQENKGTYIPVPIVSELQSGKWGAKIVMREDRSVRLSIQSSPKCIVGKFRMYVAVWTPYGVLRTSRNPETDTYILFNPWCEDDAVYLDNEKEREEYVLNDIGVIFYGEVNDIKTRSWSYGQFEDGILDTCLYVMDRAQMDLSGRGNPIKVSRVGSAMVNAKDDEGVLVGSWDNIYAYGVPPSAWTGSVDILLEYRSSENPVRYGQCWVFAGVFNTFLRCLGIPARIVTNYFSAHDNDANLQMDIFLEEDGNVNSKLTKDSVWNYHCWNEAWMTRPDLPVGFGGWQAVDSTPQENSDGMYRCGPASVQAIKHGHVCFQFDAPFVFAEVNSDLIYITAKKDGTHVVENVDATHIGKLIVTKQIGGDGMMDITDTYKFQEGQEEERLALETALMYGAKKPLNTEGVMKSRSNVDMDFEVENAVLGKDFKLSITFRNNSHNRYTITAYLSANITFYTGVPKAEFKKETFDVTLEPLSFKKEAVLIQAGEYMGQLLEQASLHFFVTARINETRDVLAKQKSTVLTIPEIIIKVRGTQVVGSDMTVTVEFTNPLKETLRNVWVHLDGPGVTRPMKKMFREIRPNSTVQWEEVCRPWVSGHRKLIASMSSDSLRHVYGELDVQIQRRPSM
Description: (§1) Incorporation of radiolabelled substrates into fibrin was investigated by induction of an in vitro human plasma clot in the following manner. To a siliconised 5 ml glass vial was added, (a) 800 μl of Tris(hydroxymethyl)aminomethane buffered saline pH 7.5 containing calcium chloride (50 mM Tris, 150 mM sodium chloride, 4 mM calcium chloride.), (b) 40 μl of physiological salt solution containing 100 units of thrombin per ml, (c) 400 μl of human plasma containing the radiolabelled substrate at a concentration of typically 10 kBq/ml. To aid induction of clot a roughened glass rod was added to the reaction vial. Control vials were prepared similarly but with the omission of thrombin and calcium chloride.
(§2) The proportion of total radioactivity was calculated by counting in suitable detection apparatus.
(§3) The fraction of radioactivity retained on the filter, after subtraction of the non-specific binding determined from the control, is a measure of incorporation into the filtered clots.

[2] = tested on: human plasma clots; test: as above; type: biochemical; settings: control vials without thrombin and calcium chloride, 60 minutes
Description: as §1, §2, §3

[3] = molecular target: T2, Factor XIIIa (Homo sapiens, UniProt P00488); test: Factor XIIIa dependency of incorporation (dimethylcasein uptake, normal vs Factor XIII deficient plasma); type: biochemical; settings: 1 KBq/ml, 60 minutes; uptake in normal plasma minus Factor XIII deficient plasma
T2 construct: Factor XIII is transformed into its active form Factor XIIIa by thrombin in the presence of calcium ions; from tissue; host or cells: human plasma
T2 sequence (P00488 39-732 limits assumed): T1 sequence (P00488 39-732)
Description: The assay was changed by replacing the mercaptoethanol with aprotinin at a final concentration of 2 μg/ml, and dimethylcasein (DMC) was used instead of casein.

[4] = Normal rat biodistribution; type: in vivo; settings: i.v., male Wistar rats, Mean±SD n=3
Description: The resolution of a clot image is dependant on the combination of rate of incorporation of the radiopharmaceutical and its blood/tissues clearance rate. For this reason the biodistribution of several compounds has been determined in rats. Male Wistar (100-150 g) rats were injected i.v. with 0.1-0.2 ml of radiolabelled tracer solution (8 MBq/ml) and dissected at different times post-injection. The % ID in each of the selected tissues was measured. Some animals were kept in metabolism cages to be able to determine the % ID excreted in urine and faeces. The dissection times used for the majority of the agents was 2, 15, 30, 60, 240 min. Data are shown as % ID, Mean±SD, (n=3).

[5] = tested on: clots induced in rat inferior vena cava; test: Incorporation into clots induced in a rat model (rat inferior vena cava model); type: in vivo; settings: rat IVC model
Description: The rats (Male Wistar, 250-350 g) were anaesthetised with 15% urethane. After laparotomy, the vena cava was isolated and freed of surrounding fat tissue. […] The average weight of the clots formed in this model was around 27 mg, n=32, (5-50 mg range). The so compounds were injected 5 min post-induction. After 60 min the animals were sacrificed and the clot removed, weighed and counted. Other tissues e.g. blood, lung, heart, were also dissected and counted. The uptake of tracer into the clot was determined as the relative concentration (cpm/g of clot by dose/g animal ) and clot to background tissue.

[6] = compound injected 5 min post-induction, clot removed after 60 min

- % specific uptake* ([1]; % retained with thrombin − % retained no thrombin): 1.2%
- % retained in plasma clot assay (with thrombin) ([1]; human plasma with thrombin and calcium chloride, 60 minutes, ca. 20° C.): 2%
- % specific DMC casein uptake [3]: 1%
- % ID Blood ([4]; 2 min post-injection): 17.8 ± 1.78 % ID
- % ID GI Tract ([4]; 2 min post-injection): 6.61 ± 0.43 % ID
- % ID Heart ([4]; 2 min post-injection): 0.44 ± 0.09 % ID
- % ID Kidney ([4]; 2 min post-injection): 10.55 ± 1.1 % ID
- % ID Liver ([4]; 2 min post-injection): 5.61 ± 0.23 % ID
- % ID Lung ([4]; 2 min post-injection): 1.53 ± 0.12 % ID
- % ID Muscle ([4]; 2 min post-injection): 32.9 ± 0.97 % ID
- % ID Urine ([4]; 2 min post-injection): 1.74 ± 1.05 % ID
- % ID Blood ([4]; 30 min post-injection): 2.20 ± 0.5 % ID
- % ID GI Tract ([4]; 30 min post-injection): 27.3 ± 3.45 % ID
- % ID Heart ([4]; 30 min post-injection): 0.06 ± 0.01 % ID
- % ID Kidney ([4]; 30 min post-injection): 3.47 ± 0.71 % ID
- % ID Liver ([4]; 30 min post-injection): 5.15 ± 0.75 % ID
- % ID Lung ([4]; 30 min post-injection): 0.31 ± 0.08 % ID
- % ID Muscle ([4]; 30 min post-injection): 4.63 ± 0.25 % ID
- % ID Urine ([4]; 30 min post-injection): 48.0 ± 2.22 % ID
- % ID Blood ([4]; 60 min post-injection): 0.38 ± 0.14 % ID
- % ID GI Tract ([4]; 60 min post-injection): 31.6 ± 6.4 % ID
- % ID Heart ([4]; 60 min post-injection): 0.01 ± 0.01 % ID
- % ID Kidney ([4]; 60 min post-injection): 1.80 ± 0.65 % ID
- % ID Liver ([4]; 60 min post-injection): 3.07 ± 0.47 % ID
- % ID Lung ([4]; 60 min post-injection): 0.09 ± 0.03 % ID
- % ID Muscle ([4]; 60 min post-injection): 1.51 ± 0.53 % ID
- % ID Urine ([4]; 60 min post-injection): 58.2 ± 8.87 % ID
- % ID Blood ([4]; 240 min post-injection): 0.04 ± 0.04 % ID
- % ID GI Tract ([4]; 240 min post-injection): 36.5 ± 1.5 % ID
- % ID Heart ([4]; 240 min post-injection): 0.00 % ID
- % ID Kidney ([4]; 240 min post-injection): 1.06 ± 0.06 % ID
- % ID Liver ([4]; 240 min post-injection): 2.01 ± 0.11 % ID
- % ID Lung ([4]; 240 min post-injection): 0.04 ± 0.00 % ID
- % ID Muscle ([4]; 240 min post-injection): 0.55 ± 0.08 % ID
- % ID Urine ([4]; 240 min post-injection): 58.9 ± 1.66 % ID
Structure (SMILES): CC(=NO)C(C)(C)NCCN(CCNC(=O)c1ccc(S(=O)(=O)NCCCCCN)cc1)CCNC(C)(C)C(C)=NO [Compound 16, 3,3,11,11-tetramethyl-7-(4-N-(5-aminopentyl)-amidosulphonyl)benzamidoethyl-4,7,10-triazatridecane-2,12-dione dioxime]
- % retained in plasma clot assay (no thrombin) [2]: 0.8%
- Clot/Blood ([5]; 60 min): 1.7
- Clot/Heart ([5]; 60 min): 3.8
- Clot/Liver ([5]; 60 min): 0.37
- Clot/Lung ([5]; 60 min): 2.1
- % ID/g (clot uptake) [5, 6]: 0.27 ± 0.06 % ID/g
- Relative conc (cpm/g of clot by dose/g animal) [5, 6]: 0.93 ± 0.16

From patent US6897209B2, “Labelled factor XIIIa substrates” (GE Healthcare Limited, priority 1997, dated 2005)
